For this test, the system named is Fibroblast. Description: Cytotoxicity against L-strain mouse fibroblasts at 0.05 mg/ml. In kind it is functional, cell-based.

Structures are written as SMILES. Active and inactive are the calls of the source. The calls are words filed in the database; no cut-off is given here.

With `COc1c(O)cc2oc(-c3ccc(O)cc3)cc(=O)c2c1O`, the outcome was Active.

For the origin of these results see ChEMBL document CHEMBL1151395, “Cytotoxic Flavones From Centaurea urvillei” (J Nat Prod, 1982).
